Experiments:
[1] = molecular target: Norepinephrine transporter (Rattus norvegicus, UniProt Q9WTR4); experiment: Displacement of [3H]nisoxetine from NET in rat […]; format: tissue-based
[2] = molecular target: Sodium-dependent serotonin transporter (Rattus norvegicus, UniProt P31652); experiment: Displacement of [3H]paroxetine from SERT in rat frontoparietal cerebral cortex; format: tissue-based
[3] = Selectivity for SERT over DAT; format: protein assay; conditions: Rattus norvegicus
[4] = molecular target: Sodium-dependent dopamine transporter (Rattus norvegicus, UniProt P23977); experiment: Displacement of [3H]GBR-12935 from DAT in rat […]; format: tissue-based
Sodium-dependent dopamine transporter, sequence (P23977 whole entry): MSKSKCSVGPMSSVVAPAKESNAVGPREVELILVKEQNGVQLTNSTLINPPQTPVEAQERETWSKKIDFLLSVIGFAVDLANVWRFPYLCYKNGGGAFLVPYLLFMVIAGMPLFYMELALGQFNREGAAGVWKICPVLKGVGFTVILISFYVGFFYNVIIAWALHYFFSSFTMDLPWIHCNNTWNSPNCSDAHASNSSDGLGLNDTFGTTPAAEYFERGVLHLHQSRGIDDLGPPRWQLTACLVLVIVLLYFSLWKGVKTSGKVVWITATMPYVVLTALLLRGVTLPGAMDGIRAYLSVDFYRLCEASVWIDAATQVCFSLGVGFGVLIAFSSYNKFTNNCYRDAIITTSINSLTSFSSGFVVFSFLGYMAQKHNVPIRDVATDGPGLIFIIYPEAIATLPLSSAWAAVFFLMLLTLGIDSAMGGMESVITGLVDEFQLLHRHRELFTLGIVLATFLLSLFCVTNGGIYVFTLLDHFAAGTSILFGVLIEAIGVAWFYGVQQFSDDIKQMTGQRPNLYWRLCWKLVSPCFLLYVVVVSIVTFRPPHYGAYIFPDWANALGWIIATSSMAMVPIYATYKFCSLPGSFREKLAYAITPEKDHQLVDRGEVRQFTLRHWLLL

[5] = molecular target: Monoamine transporters; Norepinephrine & serotonin (Rattus norvegicus) (UniProt P31652+Q9WTR4); experiment: Selectivity for SERT over NET; format: protein assay

Sodium-dependent serotonin transporter, sequence (P31652 whole entry): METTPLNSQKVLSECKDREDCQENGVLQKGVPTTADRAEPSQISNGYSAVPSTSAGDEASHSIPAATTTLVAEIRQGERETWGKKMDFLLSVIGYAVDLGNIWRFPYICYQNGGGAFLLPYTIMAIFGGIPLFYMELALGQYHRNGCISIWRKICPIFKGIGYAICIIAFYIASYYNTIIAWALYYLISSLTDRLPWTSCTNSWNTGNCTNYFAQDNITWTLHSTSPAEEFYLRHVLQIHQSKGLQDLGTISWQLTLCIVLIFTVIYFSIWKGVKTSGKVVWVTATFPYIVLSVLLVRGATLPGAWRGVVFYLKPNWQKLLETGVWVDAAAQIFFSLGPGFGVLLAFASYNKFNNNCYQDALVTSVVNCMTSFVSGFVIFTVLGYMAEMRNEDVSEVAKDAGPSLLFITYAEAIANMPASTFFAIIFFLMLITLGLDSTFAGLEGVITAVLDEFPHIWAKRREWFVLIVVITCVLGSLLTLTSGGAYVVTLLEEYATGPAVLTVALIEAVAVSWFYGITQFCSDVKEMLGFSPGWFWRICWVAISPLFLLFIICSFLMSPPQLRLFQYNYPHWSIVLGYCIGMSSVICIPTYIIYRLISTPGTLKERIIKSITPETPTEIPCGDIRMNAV
Norepinephrine transporter, sequence (Q9WTR4 whole entry): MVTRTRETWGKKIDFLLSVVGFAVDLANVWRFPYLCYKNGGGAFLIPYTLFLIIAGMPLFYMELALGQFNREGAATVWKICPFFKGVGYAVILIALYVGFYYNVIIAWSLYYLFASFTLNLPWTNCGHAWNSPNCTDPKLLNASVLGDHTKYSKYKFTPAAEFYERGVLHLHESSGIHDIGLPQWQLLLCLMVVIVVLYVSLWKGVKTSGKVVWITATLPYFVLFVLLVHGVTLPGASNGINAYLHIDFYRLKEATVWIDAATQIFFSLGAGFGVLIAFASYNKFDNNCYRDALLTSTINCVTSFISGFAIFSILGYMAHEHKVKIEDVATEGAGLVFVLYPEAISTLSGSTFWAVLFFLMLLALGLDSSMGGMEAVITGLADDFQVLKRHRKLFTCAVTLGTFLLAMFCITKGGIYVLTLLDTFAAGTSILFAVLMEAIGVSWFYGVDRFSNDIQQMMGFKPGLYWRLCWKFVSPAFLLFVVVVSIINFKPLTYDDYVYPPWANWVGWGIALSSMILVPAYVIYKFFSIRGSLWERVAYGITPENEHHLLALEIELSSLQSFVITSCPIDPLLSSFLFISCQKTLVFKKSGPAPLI

Structure (SMILES)	Ki [1] [nM]	Ki [2] [nM]	Ratio Ki [3]	Ki [4] [nM]	Ratio Ki [5]
COC(=O)C1C2CCC(CC1c1ccc(-c3nccs3)cc1)N2 (stereo not given)	213	5.15	13	69.6	
COC(=O)C1C(c2ccc(-c3ccncc3)cc2)CC2CCC1N2C (stereo not given)	> 30000	> 1000		1570	
COC(=O)C1C2CCC(CC1c1ccc(-c3cncc(OC)c3)cc1)N2 (stereo not given)	739	1.56	212	332	
COC(=O)C1C(c2ccc(-c3cnc4ccccc4c3)cc2)CC2CCC1N2C (stereo not given)	> 30000		3		
COC(=O)C1C(c2ccc(-c3nccs3)cc2)CC2CCC1N2C (stereo not given)	> 10000	1.67	311	520	
COC(=O)C1C(c2ccc(-c3cnccn3)cc2)CC2CCC1N2C (stereo not given)	213	11.3	10	121	
COC(=O)C1C(c2ccc(-c3ccco3)cc2)CC2CCC1N2C (stereo not given)	1400		6		
COC(=O)C1C2CCC(CC1c1ccc(-c3ccco3)cc1)N2 (stereo not given)	12.7	0.15	25	3.76	
COC(=O)C1C(c2ccc(-c3ccoc3)cc2)CC2CCC1N2C (stereo not given)	127	0.35	40	14.2	
COC(=O)C1C(c2ccc(-c3ccccn3)cc2)CC2CCC1N2C (stereo not given)	> 10000		0.27		
COC(=O)C1C(c2ccc(-c3cccc(N(C)C)c3)cc2)CC2CCC1N2C (stereo not given)	> 30000	> 1000		545	
COC(=O)C1C(c2ccc(-c3cc(F)cc(F)c3)cc2)CC2CCC1N2C (stereo not given)	109	0.41	77	31.7	265
COC(=O)C1C(c2ccc(-c3cncnc3)cc2)CC2CCC1N2C (stereo not given)	> 10000		110		
COC(=O)C1C(c2ccc(-c3cccc(F)c3)cc2)CC2CCC1N2C (stereo not given)	249	0.5	50	25.2	498
COC(=O)C1C(c2ccc(-c3cncc(OC)c3)cc2)CC2CCC1N2C (stereo not given)	1590	3.91	150	587	
COC(=O)C1C(c2ccc(-c3cccnc3)cc2)CC2CCC1N2C (stereo not given)	1410		7	26.1	

Reference: ChEMBL document CHEMBL1148559, “Synthesis and monoamine transporter affinity of new 2beta-carbomethoxy-3beta-[aryl or heteroaryl]phenyltropanes” (Bioorg Med Chem Lett, 2006)
